# Source: US9751837B2, “Kinase inhibitors” (RESPIVERT LIMITED, priority 2014, dated 2017)
# Tests used:
# GSK 3α = GSK 3α (Homo sapiens (Human), UniProt P49840); assay: GSK 3α enzyme inhibition (Method 2), Z-LYTE FRET; format: biochemical; details: read-out: IC50 Values for Enzyme Inhibition GSK3α
# Procedure: The enzyme inhibitory activities of compounds disclosed herein are determined by FRET using synthetic peptides labelled with both donor and acceptor fluorophores (Z-LYTE, Invitrogen Ltd., Paisley, UK).
# The following two assay variants can be used for determination of GSK 3α inhibition.
# The inhibitory activities of compounds of the invention against the GSK 3α enzyme isoform (Invitrogen), are evaluated by determining the level of activation/phosphorylation of the target peptide. The GSK3-α protein (500 ng/mL, 2.5 μL) is mixed with the test compound (2.5 μL at either 4 μg/mL, 0.4 μg/mL, 0.04 μg/mL, or 0.004 μg/mL) for 2 hr at RT. The FRET peptide (8 μM, 2.5 μL), which is a phosphorylation target for GSK3α, and ATP (40 μM, 2.5 μL) are then added to the enzyme/compound mixture and the resulting mixture incubated for 1 hr. Development reagent (protease, 5 μL) is added for 1 hr prior to detection in a fluorescence microplate reader (Varioskan® Flash, ThermoFisher Scientific).
# In all cases, the site-specific protease cleaves non-phosphorylated peptide only and eliminates the FRET signal. Phosphorylation levels of each reaction are calculated using the ratio of coumarin emission (donor) over fluorescein emission (acceptor), for which high ratios indicate high phosphorylation and low ratios indicate low phosphorylation levels.
# This method follows the same steps as Method 1 above, but utilises a shorter period of mixing of the test compound (105 minutes instead of 2 hours) with the GSK3-α protein. In addition, the concentrations of test compound employed are either 10 μg/mL, 1 μg/mL, 0.1 μg/mL, or 0.01 μg/mL
# [1] = Solubility in fasted-state simulated colonic fluid (FaSSCoF) at pH 6.5; format: physicochemical; details: 25 °C, pH 6.5, fassgf or other biorelevant, thermodynamic from solid
# Procedure, shortened: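 Compounds were suspended at up to 2-10 mg/mL in pH 6.5 Tris/maleate FaSSCoF containing a five-bile-acid mixture, phosphatidylcholine, palmitic acid and BSA. After 24 h equilibration at 25° C the suspension was filtered and the filtrate quantified by HPLC peak area against a standard.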
# [2] = pH 6.5 FaSSCoF Solubility (mg/mL) Run 1
# [3] = pH 6.5 FaSSCoF Solubility (mg/mL) Run 2
# Sequence of GSK 3α (P49840 whole entry): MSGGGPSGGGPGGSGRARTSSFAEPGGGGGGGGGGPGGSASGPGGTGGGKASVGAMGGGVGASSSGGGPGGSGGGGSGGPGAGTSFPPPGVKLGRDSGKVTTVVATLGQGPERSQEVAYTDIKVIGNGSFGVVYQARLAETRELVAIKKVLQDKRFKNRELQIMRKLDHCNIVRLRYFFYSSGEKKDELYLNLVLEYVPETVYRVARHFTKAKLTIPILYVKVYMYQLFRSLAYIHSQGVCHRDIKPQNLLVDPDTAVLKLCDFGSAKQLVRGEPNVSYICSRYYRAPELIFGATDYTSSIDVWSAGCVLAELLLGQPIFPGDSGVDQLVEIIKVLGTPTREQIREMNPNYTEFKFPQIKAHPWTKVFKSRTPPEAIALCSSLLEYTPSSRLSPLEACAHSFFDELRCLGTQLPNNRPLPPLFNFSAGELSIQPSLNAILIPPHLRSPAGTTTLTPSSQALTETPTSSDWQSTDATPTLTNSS
SMILES,IC50 (GSK 3α) [µM],"solubility thermodynamic at 24 h [1, 2] [µg/mL]","solubility thermodynamic at 24 h [1, 3] [µg/mL]"
"COc1cc(Nc2cc(Oc3ccc(NC(=O)Nc4cc(C(C)(C)C)cc(NS(C)(=O)=O)c4OC)c4ccccc34)ccn2)ccc1C(=O)N(C)CCCN1CCOCC1 [17(af), 4-[[4-[[4-[[5-tert-butyl-3-(methanesulfonamido)-2-methoxy-phenyl]carbamoylamino]-1-naphthyl]oxy]-2-pyridyl]amino]-2-methoxy-N-methyl-N-(3-morpholinopropyl)benzamide]",0.68,10,10
"COc1cc(Nc2nccc(Oc3ccc(NC(=O)Nc4cc(C(C)(C)C)cc(NS(C)(=O)=O)c4OC)c4ccccc34)n2)ccc1C(=O)NCCN1CCOCC1 [17(i), 4-[[4-[[4-[[5-tert-butyl-3-(methanesulfonamido)-2-methoxy-phenyl]carbamoylamino]-1-naphthyl]oxy]pyrimidin-2-yl]amino]-2-methoxy-N-(2-morpholinoethyl)benzamide]",0.594,,
"COc1cc(Nc2cc(Oc3ccc(NC(=O)Nc4cc(C(C)(C)C)cc(NS(C)(=O)=O)c4OC)c4ccccc34)ccn2)ccc1C(=O)NCCOCCOCCC(=O)O [17(x), 3-[2-[2-[[4-[[4-[[4-[[5-tert-butyl-3-(methanesulfonamido)-2-methoxyphenyl]carbamoyl-amino]-1-naphthyl]oxy]-2-pyridyl]amino]-2-methoxy-benzoyl]amino]ethoxy]ethoxy]propanoic acid]",0.412,15,9
"COc1cc(Nc2cc(Oc3ccc(NC(=O)Nc4cc(C(C)(C)C)cc(C(N)=O)c4OC)c4ccccc34)ccn2)ccc1C(=O)O [Example 3, 4-((4-((4-(3-(5-(tert-Butyl)-3-carbamoyl-2-methoxyphenyl)ureido)naphthalen-1-yl)oxy)pyridin-2-yl)amino)-2-methoxybenzoic acid]",0.139,6,6
"COc1cc(Nc2cc(Oc3ccc(NC(=O)Nc4cc(C(C)(C)C)cc(NS(C)(=O)=O)c4OC)c4ccccc34)ccn2)ccc1C(=O)NCCN1CCSCC1 [17(l), 4-[[4-[[4-[[5-tert-butyl-3-(methanesulfonamido)-2-methoxy-phenyl]carbamoylamino]-1-naphthyl]oxy]-2-pyridyl]amino]-2-methoxy-N-(2-thiomorpholinoethyl)benzamide]",> 12.1,,
"COc1cc(Nc2cc(Oc3ccc(NC(=O)Nc4cc(C(C)(C)C)cc(NS(C)(=O)=O)c4OC)c4ccccc34)ccn2)ccc1C(=O)N[C@@H](C)CN1CCOCC1 [17(v), 4-[[4-[[4-[[5-tert-butyl-3-(methanesulfonamido)-2-methoxy-phenyl]carbamoylamino]-1-naphthyl]oxy]-2-pyridyl]amino]-2-methoxy-N-[(1S)-1-methyl-2-morpholino-ethyl]benzamide]",> 12.1,8,8
"COc1cc(Nc2cc(Oc3ccc(NC(=O)Nc4cc(C(C)(C)C)cc(NS(C)(=O)=O)c4OC)c4ccccc34)ccn2)cc(OC)c1C(=O)NCCN1CCOCC1 [17(ae), 4-[[4-[[4-[[5-tert-butyl-3-(methanesulfonamido)-2-methoxy-phenyl]carbamoylamino]-1-naphthyl]oxy]-2-pyridyl]amino]-2,6-dimethoxy-N-(2-morpholinoethyl)benzamide]",3,11,12
"COc1cc(Nc2cc(Oc3ccc(NC(=O)Nc4cc(C(C)(C)C)cc(NS(C)(=O)=O)c4OC)c4ccccc34)ccn2)ccc1C(=O)NCCN1CCOCC1(C)C [17(k), 4-[[4-[[4-[[5-tert-butyl-3-(methanesulfonamido)-2-methoxy-phenyl]carbamoylamino]-1-naphthyl]oxy]-2-pyridyl]amino]-N-[2-(3,3-dimethylmorpholin-4-yl)ethyl]-2-methoxy-benzamide]",> 11.9,,
"COCCOCCOCCS(=O)(=O)c1ccc(Nc2cc(Oc3ccc(NC(=O)Nc4cc(C(C)(C)C)cc(NS(C)(=O)=O)c4OC)c4ccccc34)ccn2)cc1OC [Example 12, 1-[5-tert-Butyl-3-(methanesulfonamido)-2-methoxy-phenyl]-3-[4-[[2-[3-methoxy-4-[2-[2-(2-methoxyethoxy)ethoxy]ethylsulfonyl]anilino]-4-pyridyl]oxy]-1-naphthyl]urea]",2.14,,
"COCCOCCOC[C@H](C)NC(=O)c1ccc(Nc2cc(Oc3ccc(NC(=O)Nc4cc(C(C)(C)C)cc(NS(C)(=O)=O)c4OC)c4ccccc34)ccn2)cc1OC [17(h), 4-[[4-[[4-[[5-tert-butyl-3-(methanesulfonamido)-2-methoxy-phenyl]carbamoylamino]-1-naphthyl]oxy]-2-pyridyl]amino]-2-methoxy-N-[(1S)-2-[2-(2-methoxyethoxy)ethoxy]-1-methyl-ethyl]benzamide]",4.39,,
"COc1cc(Nc2cc(Oc3ccc(NC(=O)Nc4cc(C(C)(C)C)cc(NS(C)(=O)=O)c4OC)c4ccccc34)ccn2)ccc1C(=O)NCCN1CCCOCC1 [17(ai), 4-[[4-[[4-[[5-tert-butyl-3-(methanesulfonamido)-2-methoxy-phenyl]carbamoylamino]-1-naphthyl]oxy]-2-pyridyl]amino]-2-methoxy-N-[2-(1,4-oxazepan-4-yl)ethyl]benzamide]",4.48,,
"COc1cc(Nc2cc(Oc3ccc(NC(=O)Nc4cc(C(C)(C)C)cc(NS(C)(=O)=O)c4OC)c4ccccc34)ccn2)ccc1C(=O)NCC(=O)N1CCOCC1 [17(e), 4-[[4-[[4-[[5-tert-butyl-3-(methanesulfonamido)-2-methoxy-phenyl]carbamoylamino]-1-naphthyl]oxy]-2-pyridyl]amino]-2-methoxy-N-(2-morpholino-2-oxo-ethyl)benzamide]",7.42,,
"COc1c(NC(=O)Nc2ccc(Oc3ccnc(Nc4ccc(OCCN5CCOCC5)c(C#N)c4)c3)c3ccccc23)cc(C(C)(C)C)cc1NS(C)(=O)=O [Example 9, N-(5-(tert-Butyl)-3-(3-(4-((2-((3-cyano-4-(2-morpholinoethoxy)phenyl)amino)pyridin-4-yl)oxy)naphthalen-1-yl)ureido)-2-methoxyphenyl)methanesulfonamide]",4.34,,
"COc1cc(Nc2cc(Oc3ccc(NC(=O)Nc4cc(C(C)(C)C)cc(NS(C)(=O)=O)c4OC)c4ccccc34)ccn2)ccc1C(=O)NCCCN1CCOCC1 [17(b), 4-[[4-[[4-[[5-tert-butyl-3-(methanesulfonamido)-2-methoxy-phenyl]carbamoylamino]-1-naphthyl]oxy]-2-pyridyl]amino]-2-methoxy-N-(3-morpholinopropyl)benzamide]",4.49,15,15
